In US7183267B2, “β-lactamase inhibitors and methods of use thereof” (priority 2003, dated 2007):
Values after ≈ are worked out from the molar mass of the structure shown.

Tests used:
Format in all cases: cell-based
[1] = test system: methicillin resistant S. aureus ATCC 33591 (MRSA-ATCC); experiment: MIC assay, broth microdilution, MRSA-ATCC; settings: Staphylococcus aureus, 24 h
Procedure: (1) methicillin resistant S. aureus ATCC 33591 (MRSA-ATCC). This strain was obtained from American Type Culture Collection (ATCC), Manassas, Md.;
(§1) The strains were processed according to procedures recommended by ATCC, or procedures that are routinely used. Single colonies of each organism were picked for purification to generate pure working cultures. Prior to each experiment each strain was subcultured on a fresh Mueller-Hinton agar plate (MHA).
(§2) Inocula for the MIC assays were prepared by transferring a tiny portion of one colony from a MHA plate to 2 ml of Mueller-Hinton broth (MHB) such that the estimated cell density was about 10^7 colony forming unit (CFU)/ml. This cell suspension was then further diluted 10-fold (to 10^6 CFU/ml) by transferring the 2 ml cell suspension to 18 ml of MHB. Addition of 50 μl of this dilute cell suspension to 50 μl of growth medium yielded the desired cell density, namely about 5×10^4 CFU/well, or 5×10^5 CFU/ml.
(§3) The MIC value of oxacillin was determined using the broth microdilution procedure recommended by the National Committee of Clinical Laboratory Standards (NCCLS, 2000).
(§4) The MIC experiments were performed in duplicate in 96-well microtiter plates using MHB. A stock solution of 2.6 mg/0.5 ml was prepared in dimethylsulfoxide (DMSO). A total of 8 two-fold serial dilutions were made with DMSO. Initial oxacillin doses used were (μg/ml): 64, 32, 16, 8, 4, 2, 1, and 0.5. Doses were adjusted in the confirmatory experiment, if needed, in order to establish an actual MIC value.
(§5) To each well of a 96 well microtiter plate was added 47.5 μl of MHB. A volume of 2.5 μl of each dilution of oxacillin was then transferred to appropriate wells containing the medium. All wells, except the sterility control wells, were then inoculated with 50 μl of a diluted cell suspension to give a final volume of 100 μl and a final cell density of 5×10^4 CFU/well. The volume in the sterility control wells was adjusted to 100 μl with MHB. A sterile pipette tip was used to mix the contents of each well (one tip was used going from the low to the high concentration in the same column). The microtiter plates were covered with the lids and were placed in large Stratagene Big Blue plates (Cat. # 400041). Four large kimwipes moistened with tap water were placed near the edges of the Stratagene plates to prevent evaporation of the medium. The microtiter plates were incubated for at least 24 hours at 35° C. The plates were then evaluated for growth in each well. Controls included: medium sterility and negative control (medium and bacteria only).
(§6) The procedure used to determine the antimicrobial activity of the compounds of the present invention was identical to the broth microdilution procedure described above with the exception of the preparation of the stock solutions. Stock solution at concentration of 40.96 mg/0.5 ml was prepared in DMSO for each of the compounds. A total of 8 two-fold dilutions were then made in DMSO. A volume of 2.5 μl of each dilution was delivered to appropriate wells. The initial doses used were (μg/ml): 512, 256, 128, 64, 32, 16, 8, and 4.
(§7) A numerical code was used to evaluate the extent of growth as indicated below. • 0: absence of growth • 1: barely visible (faint) growth • 2: fair growth but less than the negative solvent control • 3: growth is equivalent to the negative solvent control.
(§8) The lowest dose at which no visible growth is observed was determined to be the MIC value.
(§9) MIC assays were performed with oxacillin and the four compounds. Each of the compounds was tested at the following 8 doses (μg/ml): 512, 256, 128, 64, 32, 16, 8, and 4. Oxacillin was tested at the following 8 doses (μg/ml): 64, 32, 16, 8, 4, 2, 1, and 0.5.

[2] = test system: methicillin resistant S. aureus from Stanford University Hospital (MRSA-SU); experiment: MIC assay, broth microdilution, MRSA-SU; settings: Staphylococcus aureus, MRSA, 24 h
Description: (2) methicillin resistant S. aureus from Stanford University Hospital Clinical Microbiology/Virology Laboratory (MRSA-SU). […] Such Staphylococci are also resistant to all penicillins, and all cephalosporins, in addition to all β-lactamase inhibitor combinations (including ampicillin/sulbactarn, amoxicillin/clavulanic acid, piperacillin/tazobactam), imipenem, and meropenem; and
as §1, §2, §3, §4, §5, §6, §7, §8, §9

[3] = test system: methicillin resistant S. aureus from Stanford University Hospital (MRSA-SU); experiment: Matrix system: oxacillin plus β-lactamase inhibitor, MRSA-SU
Procedure: as §5, §7, §8
The effect of the four compounds of the present invention on oxacillin resistance of the MRSA strains was determined using a matrix system. The β-lactamase inhibitors were tested at 5 doses against up to eleven concentrations of oxacillin. […] A 96-well microtiter plate was used for the matrix system. The procedure was identical to that described above for the MIC determination, with the exception that both oxacillin and one each of the β-lactamase inhibitors was added, 2.5 μl each, to the wells prior to addition of the test organisms.
Matrix Study:Oxacillin and Compound FL201 with MRSA-SU
Matrix Study: Oxacillin and Compound FL202 with MRSA-SU

SMILES: O=C(OCc1ccccc1)c1cc(B(O)O)cc([N+](=O)[O-])c1 [Compound F1201]
- MIC [1]: 32 µg/mL (≈ 106 µM)
- MIC [2]: 32 µg/mL
- MIC (oxacillin) ([3]; Table 17, in presence of F1201 2 μg/ml): 64 µg/mL
- MIC (oxacillin) ([3]; Table 17, in presence of F1201 4 μg/ml): 16 µg/mL
- MIC (oxacillin) ([3]; Table 17, in presence of F1201 8 μg/ml): 0.5 µg/mL
- MIC (oxacillin) ([3]; Table 17, in presence of F1201 16 μg/ml): <0.064 µg/mL
- growth score ([3]; Table 17, oxacillin 0, F1201 2 μg/ml): 3
- growth score ([3]; Table 17, oxacillin 0, F1201 4 μg/ml): 2
- growth score ([3]; Table 17, oxacillin 0, F1201 8 μg/ml): 2
- growth score ([3]; Table 17, oxacillin 0, F1201 16 μg/ml): 1
- growth score ([3]; Table 17, oxacillin 0, F1201 32 μg/ml): 0
- growth score ([3]; Table 17, oxacillin 0.064 μg/ml + F1201 2 μg/ml): 2
- growth score ([3]; Table 17, oxacillin 0.064 μg/ml + F1201 4 μg/ml): 2
- growth score ([3]; Table 17, oxacillin 0.064 μg/ml + F1201 8 μg/ml): 1
- growth score ([3]; Table 17, oxacillin 0.064 μg/ml + F1201 16 μg/ml): 0
- growth score ([3]; Table 17, oxacillin 0.064 μg/ml + F1201 32 μg/ml): 0
- growth score ([3]; Table 17, oxacillin 0.125 μg/ml + F1201 2 μg/ml): 2
- growth score ([3]; Table 17, oxacillin 0.125 μg/ml + F1201 4 μg/ml): 2
- growth score ([3]; Table 17, oxacillin 0.125 μg/ml + F1201 8 μg/ml): 1
- growth score ([3]; Table 17, oxacillin 0.125 μg/ml + F1201 16 μg/ml): 0
- growth score ([3]; Table 17, oxacillin 0.125 μg/ml + F1201 32 μg/ml): 0
- growth score ([3]; Table 17, oxacillin 0.25 μg/ml + F1201 2 μg/ml): 2
- growth score ([3]; Table 17, oxacillin 0.25 μg/ml + F1201 4 μg/ml): 1
- growth score ([3]; Table 17, oxacillin 0.25 μg/ml + F1201 8 μg/ml): 1
- growth score ([3]; Table 17, oxacillin 0.25 μg/ml + F1201 16 μg/ml): 0
- growth score ([3]; Table 17, oxacillin 0.25 μg/ml + F1201 32 μg/ml): 0
- growth score ([3]; Table 17, oxacillin 0.5 μg/ml + F1201 2 μg/ml): 2
- growth score ([3]; Table 17, oxacillin 0.5 μg/ml + F1201 4 μg/ml): 1
- growth score ([3]; Table 17, oxacillin 0.5 μg/ml + F1201 8 μg/ml): 0
- growth score ([3]; Table 17, oxacillin 0.5 μg/ml + F1201 16 μg/ml): 0
- growth score ([3]; Table 17, oxacillin 0.5 μg/ml + F1201 32 μg/ml): 0
- growth score ([3]; Table 17, oxacillin 1 μg/ml + F1201 2 μg/ml): 1
- growth score ([3]; Table 17, oxacillin 1 μg/ml + F1201 4 μg/ml): 1
- growth score ([3]; Table 17, oxacillin 1 μg/ml + F1201 8 μg/ml): 0
- growth score ([3]; Table 17, oxacillin 1 μg/ml + F1201 16 μg/ml): 0
- growth score ([3]; Table 17, oxacillin 1 μg/ml + F1201 32 μg/ml): 0
- growth score ([3]; Table 17, oxacillin 2 μg/ml + F1201 2 μg/ml): 1
- growth score ([3]; Table 17, oxacillin 2 μg/ml + F1201 4 μg/ml): 1
- growth score ([3]; Table 17, oxacillin 2 μg/ml + F1201 8 μg/ml): 0
- growth score ([3]; Table 17, oxacillin 2 μg/ml + F1201 16 μg/ml): 0
- growth score ([3]; Table 17, oxacillin 2 μg/ml + F1201 32 μg/ml): 0
- growth score ([3]; Table 17, oxacillin 4 μg/ml + F1201 2 μg/ml): 1
- growth score ([3]; Table 17, oxacillin 4 μg/ml + F1201 4 μg/ml): 1
- growth score ([3]; Table 17, oxacillin 4 μg/ml + F1201 8 μg/ml): 0
- growth score ([3]; Table 17, oxacillin 4 μg/ml + F1201 16 μg/ml): 0
- growth score ([3]; Table 17, oxacillin 4 μg/ml + F1201 32 μg/ml): 0
- growth score ([3]; Table 17, oxacillin 16 μg/ml + F1201 2 μg/ml): 1
- growth score ([3]; Table 17, oxacillin 16 μg/ml + F1201 4 μg/ml): 0
- growth score ([3]; Table 17, oxacillin 16 μg/ml + F1201 8 μg/ml): 0
- growth score ([3]; Table 17, oxacillin 16 μg/ml + F1201 16 μg/ml): 0
- growth score ([3]; Table 17, oxacillin 16 μg/ml + F1201 32 μg/ml): 0
- growth score ([3]; Table 17, oxacillin 64 μg/ml + F1201 2 μg/ml): 0
- growth score ([3]; Table 17, oxacillin 64 μg/ml + F1201 4 μg/ml): 0
- growth score ([3]; Table 17, oxacillin 64 μg/ml + F1201 8 μg/ml): 0
- growth score ([3]; Table 17, oxacillin 64 μg/ml + F1201 16 μg/ml): 0
- growth score ([3]; Table 17, oxacillin 64 μg/ml + F1201 32 μg/ml): 0
- growth score ([3]; Table 17, oxacillin 128 μg/ml + F1201 2 μg/ml): 0
- growth score ([3]; Table 17, oxacillin 128 μg/ml + F1201 4 μg/ml): 0
- growth score ([3]; Table 17, oxacillin 128 μg/ml + F1201 8 μg/ml): 0
- growth score ([3]; Table 17, oxacillin 128 μg/ml + F1201 16 μg/ml): 0
- growth score ([3]; Table 17, oxacillin 128 μg/ml + F1201 32 μg/ml): 0
- growth score ([3]; Table 17, oxacillin 256 μg/ml + F1201 2 μg/ml): 0
- growth score ([3]; Table 17, oxacillin 256 μg/ml + F1201 4 μg/ml): 0
- growth score ([3]; Table 17, oxacillin 256 μg/ml + F1201 8 μg/ml): 0
- growth score ([3]; Table 17, oxacillin 256 μg/ml + F1201 16 μg/ml): 0
- growth score ([3]; Table 17, oxacillin 256 μg/ml + F1201 32 μg/ml): 0
